Tested on: mouse model of relapse-remitting type ulcerative colitis
Experiment: Ulcer score of the large intestine in the mouse model of colitis induced by 1% DSS (Example 1)
Assay type: in vivo
Settings: day of completion; score 1 = ulcer of 1 mm^2 or larger; antibodies 0.5 mg/mouse intraperitoneally once; sulfasalazine 200 mg/kg orally once a day
Protocol: An aqueous solution of dextran sulfate (DSS) was administered to a mouse to induce relapse-remitting type ulcerative colitis. To this mouse model of relapse-remitting type ulcerative colitis, an anti-CD81 antibody was administered once and a relapse (recurrence)-inhibitory effect of single-dose administration of an anti-CD81 antibody on ulcerative colitis was examined by comparing with single-dose administration of an anti-TNF-α antibody and multiple-dose administration of sulfasalazine, both of which are the existing therapeutic agents.
Dextran sulfate (the product of TdB consultancy AB, an average molecular weight of 47,000) was dissolved in drinking water to prepare a 1% aqueous solution. […]
Four-week-old mice (BALB/cAnNCrj, male, the product of Charles River Laboratories Japan, Inc.) were purchased, and the mice in which no abnormality was found after six days of quarantine rearing were measured for body weight and then divided into six groups, where one group contained 10 mice. […]
On the day of completion of the experiment, 0.1 ml of a 2.5% brilliant blue 6B solution was administered to all groups of mice via tail vein. […] Subsequently, the large intestine was thoroughly washed with an ethanol solution and the size of ulcer was measured. […]

## O=C(O)c1cc(/N=N/c2ccc(S(=O)(=O)Nc3ccccn3)cc2)ccc1O [Sulfasalazine, sulfasalazine]
  Ulcer score: 0.1

— US20130004516A1, “DRUG FOR INFLAMMATORY BOWEL DISEASE” (DAINIPPON SUMITOMO PHARMA CO., LTD., priority 2010, published 2013)
